Assay results as given in patent US20250197248A1, “WATER TREATMENT SYSTEM” (KEMIRA OYJ, priority 2022, published 2025).

Experiments:
[1] = test system: E. coli; test: Disinfection efficacy of PFA in wastewater samples, colony count (USEPA method 10029); format: cell-based; details: S2 (50% secondary + 50% primary-only wastewater, 30 min contact) versus S1 (secondary-treated wastewater, 90 min contact); FIG. 4B
Method: (§1) The disinfection efficacy of PFA against fecal coliform and E. coli was assessed in wastewater (WW) that had undergone secondary treatment (S1), and in a mixed wastewater sample comprising 50% wastewater that had undergone secondary treatment and 50% wastewater that had undergone primary treatment without secondary treatment (S2). The S2 sample would have inevitably contained higher levels of TSS, increased organic matter and increased microbial content.
(§2) WW samples were collected and stored at 4° C. […] until use (within 1 to 3 days). A PFA solution was prepared immediately prior to use by mixing 2.5 mL of 35% hydrogen peroxide with 2.5 mL of DEX®-A375 (a mixture of formic and sulfuric acids). The resultant mixture was incubated for 5 minutes at 4° C. and subsequently for 25 minutes at room temperature to complete formation of the 9.5% PFA solution. The 9.5% PFA solution was diluted to 950 mg/L by adding 0.2 mL of the 9.5% PFA solution to 19.8 mL distilled water.
(§3) WW samples were dosed with PFA to determine efficacy after set contact times. A shorter 30 minute contact time was used for the S2 samples to emulate the shorter contact times that would occur in a CSO event when the volume and rate of flow of water through the WW treatment system is increased. […] After incubation, the number of colonies was counted. […]

[2] = test system: fecal coliform; test: as above; format: cell-based; details: S2 (50% secondary + 50% primary-only wastewater, 30 min contact) versus S1 (secondary-treated wastewater, 90 min contact); FIG. 4A
Method: as §1, §2, §3

[3] = Residual PFA over time in dosed wastewater samples (CHEMetrics test kit); format: physicochemical; details: doses 0.5, 1 and 2 ppm; S2 samples versus S1 samples; FIG. 5
Method: Varying doses of PFA (0.5 ppm, 1 ppm, and 2 ppm) were dosed into S1 and S2 wastewater samples as described in Example 1. Residual levels of PFA were measured using a CHEMetrics test kit for PAA with vacuum ampules detecting in the 0-5 ppm range (Maffettone, 2020). PFA values were obtained by multiplying the PAA results by 0.82 (Maffettone, 2020). The factor of 0.82 for conversion of PAA to PFA corresponds to the molecular weight ratio of PFA (62.02 g/mol) to PAA (76.05 g/mol). Due to the fast degradation of PFA, residual PFA concentrations were determined immediately following the sample collection.

## O=COO [PFA, performic acid]
[1]
  disinfection efficacy against E. coli: significantly reduced
[2]
  disinfection efficacy against fecal coliform: significantly reduced
[3]
  residual PFA levels over time (degradation in wastewater): decrease more rapidly over time in S2 samples than in S1 samples
